# Results from a melting point compilation (Tetko et al.; mined from patent text by program, amines drawn as free bases though some values may be those of a salt).
row,SMILES,melting point
1,Oc1cccc(-c2ccc3cc(O)ccc3c2)c1,192 to 194 °C
2,O=C1N(N2CCCCC2)c2ccccc2C1(O)Cc1ccncc1 (stereo not drawn),156 to 158 °C
3,O=[N+]([O-])c1cn(CC(I)=C(I)I)c(Cl)c1Cl,126 to 127 °C
4,CCCOc1ccc(-c2ncc(C#N)cn2)cc1,193 to 194 °C
5,COc1ccc(Br)cc1C(=O)C(Br)C(Br)c1cccc(Br)c1 (stereo not drawn),124 to 126 °C
6,CCOC(=O)C1=C(C)NC(CS)=C(C(=O)OCC)C1c1cccc([N+](=O)[O-])c1 (stereo not drawn),145 to 147 °C
7,CCCCn1cnc2c(OCc3cccs3)nc(Nc3ccc(OCC)nc3)nc21,112 to 114 °C
8,CC(C)CCSCC[C@H](O)[C@@H](N)CC(C)C,64 to 65 °C
9,O=C(O)CCCc1ccc(NS(=O)(=O)c2ccc(Cl)c(Cl)c2)cn1,193 to 194 °C
10,O=C1c2c(Cl)cccc2-n2cnc(-c3noc(CN4Cc5ccccc5C4)n3)c2[C@@H]2CCN12,218 to 222 °C
11,Nc1nc(NC2CC2)c2ncn([C@@H]3C[C@H](CO)[C@@H](O)C3)c2n1,174 to 176 °C
12,CN(Cc1cccc2c1C(=O)N(C1CCC(=O)NC1=O)C2=O)C(=O)Nc1ccccc1 (stereo not drawn),226 to 228 °C
13,COc1ccc2c(c1)Sc1ccccc1C(=S)N2,239 to 241 °C
14,NCc1cccc(Cn2ccc(OCc3ccc(F)cc3F)c(Br)c2=O)c1F,160 to 163 °C
15,C#CCCn1nnc2cc3c(=O)n(C(C)Cn4ncnn4)nnc3cc2c1=O (stereo not drawn),185 to 188 °C
16,Cc1ccc(CN2CCN(C(=O)OC(C)(C)C)CC2)cc1,61 to 62 °C
17,O=C(CN1C(=O)c2ccccc2C1=O)NNC(=O)c1ncn2c1[C@@H]1CCN1C(=O)c1sccc1-2,> 260 °C
18,CC(=O)OCc1ccc(CC(C)NCC(O)c2ccccc2)cc1 (stereo not drawn),78 to 82 °C
19,CC(C)(C)OC(=O)N1CCN(C(=O)c2cc3ccccc3[nH]2)CC1,213 to 214 °C
20,COc1ccc(C(=O)c2c(N)sc(C)c2C)cc1OC,172 to 173 °C
21,N#CCCNC(=O)c1cccc(-c2cccc3oc(Cc4ccc(F)c(Cl)c4)cc23)c1,130 to 131 °C
22,O=C(O)C1c2ccccc2COc2cc(Br)ccc21 (stereo not drawn),217 to 218 °C
23,CCCCOc1ccc(S(=O)(=O)C2(C(=O)O)CCN(Cc3cccc(OC)c3)CC2)cc1,175 °C
24,c1ccc(Nc2nc(N3CCN(c4ccccc4)CC3)nc3c2SCC3)cc1,174 to 175 °C
25,O=C(Nc1ccc(N2CC(F)(F)C2)nc1)c1cc2cc(C(F)(F)F)cnc2n1Cc1cccc(F)c1,222 to 224 °C

row,SMILES,melting point
1,CS(=O)c1cc(C(C)(C)C)c(O)c(C(C)(C)C)c1 (stereo not drawn),171 to 173 °C
2,CCS(=O)(=O)c1ccc(Oc2ccc(Cl)c(Cl)c2)nc1,117 to 118 °C
3,COc1cc(N)ccc1C=NNC(=N)NN=Cc1ccc(N)cc1OC,220 to 230 °C
4,CNC(=O)N1C(=S)C2(CCCCC2)NC12CCCCC2,127 to 129 °C
5,CCc1nc2cnc3cc(Br)ccc3c2n1CC1CCN(C(=O)OC(C)(C)C)CC1,208 to 209 °C
6,c1cnc2ccc(Cn3nnc4ccc(-c5ccc(N6CCOCC6)nc5)nc43)cc2c1,183 to 185 °C
7,O=C(c1ccc(Nc2ccnc3cc(C(F)(F)F)ccc23)cc1)N1CCN(S(=O)(=O)c2ccc(Cl)cc2)CC1,234 to 236 °C
8,CCOC(=O)c1oc2cccc(C(C)OC)c2c1C (stereo not drawn),67 to 69 °C
9,C=CCN(C1=NCCN1C)c1c(Cl)cccc1Cl,59 to 61 °C
10,COC(=O)COc1ccc2cc(-c3cnc(-c4cn(Cc5ccccc5)c5ccccc45)o3)ccc2c1,204 to 207 °C
11,"CC(C)Cc1ccc(C2(C)Oc3ccc(C(=O)c4c[nH]c5ccccc45)cc3O2)cc1 (single isomer, unassigned; (-))",155 to 158 °C
12,CC(O)c1cccc(Nc2ccccc2C(=O)O)c1Cl (stereo not drawn),169 to 171 °C
13,CO[C@@H]1C=C2C=C3C(=C(C)C(=O)N3C)C[C@]2(C)[C@@H](C)[C@H]1OC(=O)c1ccco1,155 to 158 °C
14,CC(=O)NCC1CN(c2ccc(N(C)C=O)c(F)c2)C(=O)O1 (stereo not drawn),116 to 117 °C
15,O=C(O)CCn1c(=O)n2n(c1=O)C(C(=O)O)C=CC2 (stereo not drawn),172 to 175 °C
16,CC(C)(CCl)C(=O)N(O)Cc1ccccc1F,110 to 112 °C
17,Cn1cc(-c2cc(Cl)cc(Cl)c2)c(=O)c(-c2cccc(C(F)(F)F)c2)c1,156 to 160 °C
18,CC(=NOCc1cc(C(F)(F)F)ccc1C(F)(F)F)c1cc(Cl)ccc1NS(=O)(=O)C(F)(F)F,73 to 75 °C
19,COc1ccc(-c2ccc(-c3ccc(C(F)(F)F)cc3)nc2-c2ccc(OC)cc2)cc1,144 to 147 °C
20,O=C1CCC(Cc2ccc(Cl)cc2)N1 (stereo not drawn),95 to 98 °C
21,O=C(c1cc(-c2ccc(Cl)cc2)c(N2CCOCC2)s1)c1ccc(Cl)cc1Cl,110 °C
22,CCC(=O)c1cc(CC)c(O)cc1O,74 to 75 °C
23,Cc1sc(-c2ccccc2)nc1COc1ccc(COc2ncccc2C#N)cc1,120 to 121 °C
24,Cc1c(C)c2c(c(C)c1O)CCC(C)(C(=S)N1CCN(c3ccc(Cl)cc3)CC1)O2 (stereo not drawn),154 to 155 °C
25,CC(C)(C)c1cc(CC2=NC(=S)SC2)cc(C(C)(C)C)c1O,138 to 140 °C

row,SMILES,melting point
1,N#Cc1ccccc1Oc1cc(-n2cccc2)ccc1O,120 to 122 °C
2,CCOC(=O)C1=CC2(CCC1S(=O)(=O)Nc1ccc(F)cc1Cl)CC2 (stereo not drawn),125 to 126 °C
3,Cc1ccc(C)n1CCNC(=O)CN(C)C,63 to 65 °C
4,CC(C#Cc1ccc(C=Cc2ccc(F)cc2)s1)N(O)C(N)=O (stereo not drawn),177 °C
5,COC(=O)c1cc(-n2c(-c3ccccc3)cc3c2CCc2ccccc2-3)ccc1O,164 to 166 °C
6,COc1cc(OC)nc(NC(=O)NS(=O)(=O)c2cccc3c2S(=O)(=O)N(C)C3)n1,229 to 231 °C
7,O=C1C2CN(Cc3ccccc3)CC2C(=O)N1Cc1ccccc1 (stereo not drawn),100 °C
8,CCCOc1ccc(S(C)(=O)=O)cc1-c1nc2c(CC)nn(C[C@@H]3CCCN3C)c2c(=O)[nH]1,211 to 215 °C
9,COc1ccc(COc2ccc(NC(C)=O)cc2C(=O)C=Cc2ccc(OCc3ccccc3)cc2)cc1,201 to 202 °C
10,CC(=O)Nc1ccc(C(=N)Nc2cc(NC(=O)/C=C/c3ccccc3C(F)(F)F)c(F)cc2F)cc1,180 to 185 °C
11,COc1ccc(-c2csc(NC(=O)COc3ccc(Cl)cc3Cl)n2)cc1,135 to 139 °C
12,CC(=O)N(C(C)=O)c1cc2c(c(N(C(C)=O)C(C)=O)c1)OC(C(Cl)(Cl)Cl)OC2C(Cl)(Cl)Cl (stereo not drawn),182 to 183 °C
13,CC(C)(C)CN1c2ccccc2C(C)(C)C12C=Nc1c(ccc3ccccc13)O2 (stereo not drawn),167 to 170 °C
14,CN(CCOc1ccc(C(N)=O)cc1)CCc1ccc(NS(C)(=O)=O)cc1,147 °C
15,COC(=O)C(OC)(OC)c1ccccc1Br,55 °C
16,CCCOc1ccccc1-c1nc2nc(N(CCC)CCC)ncc2c(=O)[nH]1,123 to 124 °C
17,CCCCC(C)C(O)CCc1cc(O)c(O)cc1Br (stereo not drawn),68 to 71 °C
18,CC(=O)OCc1nc2c([N+](=O)[O-])cc(Br)cc2n1C,143 to 145 °C
19,Cc1cc(S(=O)(=O)N(C)CC(O)(CCl)c2ccccc2)ccc1Cl (stereo not drawn),105 to 107 °C
20,ON=C1c2ccccc2C2CC2c2ccccc21 (stereo not drawn),201 °C
21,COC(=O)Cn1c(C(=O)OCc2ccccc2)cc2ccccc21,94 °C
22,O=C(CC1=C(n2nc(-c3c(-c4ccccc4)nn4ccccc34)ccc2=O)CCCC1)N1CCSCC1,180 to 182 °C
23,C=C(Br)c1cc(O)cc2nc(-c3ccc(O)c(F)c3F)oc12,240 to 242 °C
24,O=C(N(Cc1cccnc1)c1ccc(F)cc1)C(F)(F)F,97 to 98 °C
25,O=C(O)c1csc(Oc2cccc(Cl)c2)n1,135 to 137 °C

row,SMILES,melting point
1,CC(SC1COC(c2cccc(C(=O)Nc3ccc(C#N)cc3)c2)OC1)C(O)(Cn1cncn1)c1ccc(F)cc1F (stereo not drawn),105 °C
2,COc1ccc2c(c1OCc1ccccc1)CC(C(=O)O)N(C(=O)C(c1ccccc1)c1ccccc1)C2 (racemic),157 to 159 °C
3,CCSc1nc2c(C)sc(C(=O)O)c2n1Cc1ccc(-c2ccccc2-c2nc(=O)[nH]o2)cc1,144 to 147 °C
4,C#CCNC(NCCSCc1[nH]cnc1C)=C(C#N)C#N,112 to 115 °C
5,CCC(C)C(C(=O)O)N1C(=O)C2C3C=CC(C3)C2C1=O (stereo not drawn),109 °C
6,CCc1ccc(Br)c(CC)c1-n1cncc1C(=O)O,224 to 227 °C
7,COC(=O)CCc1conc1-c1ccc(Cl)c(F)c1,57 to 58 °C
8,O=C(Nc1cccc(C(F)(F)F)c1F)c1cccnc1NCc1ccc(=O)[nH]c1,219 to 222 °C
9,CCCSC1NC(c2ccc(Cl)cc2)=NN(CC(F)(F)F)C1=O (stereo not drawn),99 to 100 °C
10,CCOC(=O)C(Oc1cccc2[nH]ccc12)C(=O)OCC,52 to 53 °C
11,CC(=O)Nc1ccc2[nH]c(=O)cc(CCN3CCC(c4c[nH]c5ccccc45)CC3)c2c1,180 to 183 °C
12,COc1cc(OC)nc(OC2C(=O)OCC2(C)C)n1 (stereo not drawn),139 to 142 °C
13,COCc1nc(N)nc(N)c1-c1ccc(Cl)c(Cl)c1,204 to 206 °C
14,CCc1cc(=O)c2nc(OC(C)C)c(Cl)cc2[nH]1,231 to 235 °C
15,Cc1c(Cc2ccc(C(=O)O)s2)n(S(=O)(=O)c2cccc(C(C)(C)C)c2)c2ccc(C(F)(F)F)cc12,171 °C
16,CC(C)(C)c1cc(N)cc(C(C)(C)C)c1O,105 to 108 °C
17,C=Cc1ccc2c(c1)C[C@H](C(=O)N1CCC[C@H](C)C1)N2c1cccnn1,206 to 209 °C
18,O=C(NN=C1C=CC=NC1)c1cccnc1,213 to 216 °C
19,O=c1occ(-c2ccccc2)n1-c1ccc(F)cc1,145 to 147 °C
20,CC1(C)Oc2cc([N+](=O)[O-])sc2C(N2CCCCC2=O)C1O (stereo not drawn),158 °C
21,C[C@@H](O)c1nccc(N2CCN(c3nc4ccncc4o3)CC2)n1,181 to 183 °C
22,CCc1nccc(NC(=O)Cc2ccc(O)cc2)c1Cl,158 to 161 °C
23,COc1ccc2nc(COc3cccc(C(=O)Nc4cc(CCCS(=O)(=O)c5ccc(Cl)cc5)ccc4OCC(=O)O)c3)sc2c1,187 to 189 °C
